Experiment [1] deals with siRNA (Stealth RNAi Negative Control siRNA). The experiment is described as follows: Electrophoretic mobility shift assay (EMSA), peptide-siRNA binding/encapsulation. Conditions: peptides 10–100 μM mixed with siRNA at 1:10–1:100 molar ratios in RNase-free water, 30 min 37 °C or 1 h 50 °C; 4% agarose gel, MOPS pH 7.5, GelRed. As for the experimental part:
Peptides (10–100 μM) were mixed with siRNA at 1:10–1:100 molar ratios in RNase-free water and incubated 30 min at 37 °C (or 1 h at 50 °C for low-binding peptides). Complexes, supplemented with 5% glycerol, were run on 4% agarose gels in MOPS buffer (pH 7.5) at 70 V for 30 min, stained with GelRed, and imaged under UV. FastRuler UltraLow served as the size marker.
A general note: A gel shift assay detects complexes by their altered migration in electrophoresis.

The next experiment concerns A375 and MCF7 cells. As to the kind of experiment: Cell internalisation of DCPP/Alexa Fluor 555 siRNA complexes (statements not split by cell line). The class given is cell-based. The conditions noted are these: Alexa Fluor 555 siRNA 25–100 nM, 24 h, fluorescence normalised to crystal violet; cell line not stated. As for the experimental part: A375 (RRID: CVCL_0132) and MCF7 cells (RRID: CVCL_0031) were obtained from ATCC. MEL-STV cells (here called MelST, RRID: CVCL_9U71) are immortalised human melanocytes generated by introducing SV40 large T antigen and hTERT. They are non-tumorigenic and were kindly provided by Dr. Robert Allan Weinberg (Whitehead Institute, MIT). All cell lines were cultured in DMEM + GlutaMax™ with 5% FBS at 37 °C/5% CO2. Working solutions of Alexa Fluor 555 siRNA were prepared in UltraPure DNase/RNase-Free Distilled Water at concentrations of 100–400 nM, and peptide solutions were prepared to achieve the desired peptide–siRNA binding molar ratios, selected based on the siRNA binding efficiency of each peptide. siRNA was mixed with its respective peptide solution and incubated for 30 min at 37 °C or 1 h at 50 °C, depending on the peptide. After incubation, the complexes were diluted in OptiMEM and added to the wells at 50 μL per well, with final siRNA concentrations ranging from 25 to 100 nM. […] OptiMEM without phenol red was added, and fluorescence was measured using Alexa Fluor 555 (excitation/emission: 553/568 nm, reading: 535/595 nm). Cells were subsequently stained with crystal violet and resuspended in citrate buffer, and absorbance was measured. Crystal violet absorbance was used to normalise the fluorescence signal, accounting for cell density or viability differences.

The subject of the next experiment is GAPDH in A375 cells. As to the kind of experiment: GAPDH silencing by DCPP/GAPDH-siRNA complexes (KDalert kit). The class given is cell-based, human. Conditions: 2.5% FBS, 48 h, three biological replicates. As for the experimental part:
GAPDH silencing: DCPP/GAPDH-siRNA complexes were prepared as above, diluted in OptiMEM, and added (50 μL) to 96-well plates. A375 and MCF7 cells (2 × 10^3 cells/well) in 50 μL OptiMEM + 5% FBS + 1% P/S were plated onto the complexes (final 100 μL, 2.5% FBS). After 48 h, GAPDH knock-down was measured with the KDalert™ kit.

Results on four molecules are retold here after PMC12590273, “Systematic design of DMBT1-derived peptides correlating physicochemical properties and sequence motifs with siRNA delivery and efficacy in cancer therapy” (eBioMedicine, 2025).

Non-standard residues stand in square brackets, D forms with d. Residues, ends and D or L forms follow the SMILES beside them.

For `CC(=O)N[C@@H](CCCCN)C(=O)N1CCC[C@H]1C(=O)N[C@@H](CO)C(=O)N[C@@H](CO)C(=O)N1CCC[C@H]1C(=O)N1CCC[C@H]1C(=O)N[C@@H](CCC(=O)O)C(=O)N[C@@H](CCC(=O)O)C(=O)NCC(=O)N[C@H](CCCNC(=N)N)C(=O)N[C@H](C(=O)N[C@@H](CCC(=O)O)C(=O)N[C@H](C(=O)N[C@@H](CC(C)C)C(=O)N[C@@H](Cc1c[nH]cn1)C(=O)N[C@@H](Cc1c[nH]cn1)C(=O)N[C@@H](Cc1c[nH]cn1)C(=O)N[C@@H](Cc1c[nH]cn1)C(=O)N[C@H](Cc1c[nH]c2ccccc12)C(=O)N[C@@H](CCCNC(=N)N)C(=O)N[C@@H](CCCNC(=N)N)C(=O)N[C@@H](CCCNC(=N)N)C(=O)N[C@@H](CCCNC(=N)N)C(=O)N[C@H](Cc1c[nH]c2ccccc12)C(N)=O)C(C)C)C(C)C` [A6DH, Ac-KPSSPPEEGrVEVLHHHHwRRRRw-NH2] (Ac-KPSSPPEEG[dR]VEVLHHHH[dW]RRRR[dW]-NH2), the “siRNA binding / encapsulation (peptide-siRNA binding molar ratio by EMSA)” value in experiment [1] is reported as “no detectable siRNA binding”. As for “Ac-GRVEVLRRRRWKPSSPPEEHH-NH2 [D4RA6H, CD44-targeting DMBT1-derived peptide containing the A6 motif]”, in experiment [1], the “siRNA binding / encapsulation (peptide-siRNA binding molar ratio by EMSA)” value is reported as “no detectable siRNA binding”. For the molecule SREPRGD, the “siRNA binding / encapsulation (peptide-siRNA binding molar ratio by EMSA)” value in experiment [1] is “efficiently bound siRNA”. In the experiment on A375 and MCF7 cells, the “shape of dose–response curve of cell interaction” value was “sigmoid curve with a plateau”. Also, in the experiment on GAPDH in A375 cells, the “GAPDH silencing in A375 cells” value is “significant gene silencing”. As to SREPRGDK, in experiment [1], the “siRNA binding / encapsulation (peptide-siRNA binding molar ratio by EMSA)” value is reported as “efficiently bound siRNA”.
